Data on seven compounds can be found in article PMC6433232, “Targeting mitochondria in cancer therapy could provide a basis for the selective anti-cancer activity” (PLoS ONE, 2019).

Structures are written as SMILES. Where two headings read alike, the source gives them in different places.

Data set [1] relates to human primary hepatocytes. In words: cells. Conditions: Hepatocyte, read-out: EC50, μM Hepatocytes.
From the text: (§2) We selected hepatocytes as normal cells because hepatocytes are mediate toxicity to multiple drugs and are used as a standard to assess toxicity of drugs in vitro [28]. […] For comparison with the standard of care, doxorubicin was also included in this analysis.
Data set [2] in a line: in vitro. Conditions: human. The protocol:
(§1) Fig 1 A, Structure of NSC130362. B, Dose response curve of NSC130362 in MIA PaCa-2 cells. Cells were pre-incubated with NSC130362 for 2 h followed by addition of ATO (5 μM) and incubation for an additional 24 h. At the end of the treatment, the ratio of dead cells was determined by a CellTiterGlo reagent.

In data set [3] the test system is pancreatic cancer MIA PaCa-2 cells. In words: cells. Conditions: for EC50: Homo sapiens, MIA PaCa-2, read-out: EC50, μM MIA PaCa-2; for improvement in anti-cancer activity: versus compound 4. How it is done:
as §1

Data set [4] relates to human primary hepatocytes. Conditions: for EC50: read-out: EC50, μM Hepatocytes ATO, in the presence of ATO (5 μM), SD does not exceed 10%.
From the text: as §2

Usually EC50 stands for the concentration that produces a half-maximal response. Regarding `COc1cccc2c1C(=O)c1c(O)c3c(c(O)c1C2=O)C[C@@](O)(C(=O)CO)C[C@@H]3O[C@H]1C[C@H](N)[C@H](O)[C@H](C)O1` [Doxorubicin, reference compound], the EC50 came out at 10 µM in data set [1] and 0.7 µM in data set [3]. Moreover, the selectivity ratio in data set [2] was determined as 3.5. Moreover, the “selective cytotoxicity index, times less” value in data set [3] (human) was “approximately 25 times”.

On to `COCCCNC1=C(Cl)C(=O)c2ccccc2C1=O` [compound 22], for which the “increase in toxicity to hepatocytes” value in data set [4] (versus compound 4) is reported as “approximately 3 fold”. Besides, the EC50 amounted to 90 µM in data set [1] and 39 µM in data set [3]. Further, the “decrease in anti-cancer activity” value in data set [3] (versus compound 21) stood at 4 fold.

For `CN(C)CCCNC1=C(Cl)C(=O)c2ccccc2C1=O` [compound 27], the “increase in toxicity to hepatocytes” value in data set [4] (versus compound 4) was 9.2 fold. For the same compound, the EC50 in data set [1] came to 24.1 µM. For the same compound, in data set [3], the EC50 was 0.9 µM and the “improvement in anti-cancer activity” value is 10.8 fold.

Regarding `O=C1C(Cl)=C(NCCCN(CCO)CCO)C(=O)c2ccccc21` [compound 28], in data set [4] (versus compound 4), the “increase in toxicity to hepatocytes” value was determined as 3.0 fold. Besides, the EC50 in data set [1] came out at 48.5 µM. In data set [3], the EC50 was determined as 9.2 µM and the “improvement in anti-cancer activity” value is recorded as 4.6 fold.

For `NC1=CC(=O)c2ccccc2C1=O` [compound 48, 3-amino-1,4-NQ], the “increase in toxicity to hepatocytes” value in data set [4] (versus compound 1) was “approximately 3 fold”. Moreover, the EC50 in data set [1] amounted to 28.1 µM; in data set [3], 24.4 µM.

As to `CC1=CC(=O)c2ccccc2C1=O` [compound 61, 3-methyl-1,4-NQ, reference compound], the “times less toxic to hepatocytes” value in data set [4] was “approximately 5 times”. Also, the EC50 in data set [4] turned out to be 15.6 µM; in data set [1] it was 11.8 µM; in data set [3] it was 7.8 µM. Besides, the selectivity ratio in data set [2] came to 10.4. The improved anti-cancer activity in data set [3] (versus 1,4-NQ (compound 56)) came out at 1.5 fold.

`NC1=C(Br)C(=O)c2ncccc2C1=O` [compound 65]: the EC50 in data set [4] is 4.1 µM; in data set [1], 8.6 µM; in data set [3], 1.8 µM.
